The test system of series [1] is Hepatotoxicity. The series is described as follows: Literature-mined compound from Fourches et al multi-species drug-induced liver injury (DILI) dataset, effect in humans. The conditions noted are these: human.
Series [2] concerns Hepatotoxicity. The series is described as follows: Literature-mined compound from Fourches et al multi-species drug-induced liver injury (DILI) dataset, effect in non-rodents.
Series [3] concerns Hepatotoxicity. As to the kind of experiment: Literature-mined compound from Fourches et al multi-species drug-induced liver injury (DILI) dataset, effect in rodents. The conditions noted are these: rodentia.

Take `COc1cc([C@@H]2c3cc4c(cc3[C@H](O)[C@H]3COC(=O)[C@H]23)OCO4)cc(OC)c1OC` [PODOFILOX]: the Hepatotoxicity entry is recorded as “no drug-induced liver injury reported” in the series on Hepatotoxicity [1], “no drug-induced liver injury reported” with Hepatotoxicity [2] and “drug-induced liver injury reported” in the series on Hepatotoxicity [3].

`C[C@]12CC[C@H](O)CC1=CC[C@@H]1[C@@H]2CC[C@]2(C)C(=O)CC[C@@H]12` [PRASTERONE]: the Hepatotoxicity result in the series on Hepatotoxicity [1] is given as “drug-induced liver injury reported”; in the series with Hepatotoxicity [2], “no drug-induced liver injury reported”; with Hepatotoxicity [3], “drug-induced liver injury reported”.

On to `CC[C@H](C)C(=O)O[C@H]1C[C@H](O)C=C2C=C[C@H](C)[C@H](CC[C@@H](O)C[C@@H](O)CC(=O)O)[C@H]21` [PRAVASTATIN], for which the Hepatotoxicity entry with Hepatotoxicity [1], in the series on Hepatotoxicity [2] and in the series with Hepatotoxicity [3] was “drug-induced liver injury reported” in each case.

On to `COc1cc2nc(N3CCN(C(=O)c4ccco4)CC3)nc(N)c2cc1OC` [PRAZOSIN], for which the values for the Hepatotoxicity entry with Hepatotoxicity [1], with Hepatotoxicity [2] and in the series on Hepatotoxicity [3] were “drug-induced liver injury reported”, “no drug-induced liver injury reported” and “drug-induced liver injury reported”, respectively.

As for `C[C@]12C=CC(=O)C=C1CC[C@@H]1[C@@H]2[C@@H](O)C[C@@]2(C)[C@H]1CC[C@]2(O)C(=O)CO` [PREDNISOLONE], the Hepatotoxicity result with Hepatotoxicity [1] is reported as “drug-induced liver injury reported”; in the series with Hepatotoxicity [2], “no drug-induced liver injury reported”; in the series with Hepatotoxicity [3], “drug-induced liver injury reported”.

For `C[C@]12C=CC(=O)C=C1CC[C@@H]1[C@@H]2C(=O)C[C@@]2(C)[C@H]1CC[C@]2(O)C(=O)CO` [PREDNISONE], the Hepatotoxicity result is recorded as “drug-induced liver injury reported” in the series on Hepatotoxicity [1], “drug-induced liver injury reported” with Hepatotoxicity [2] and “no drug-induced liver injury reported” with Hepatotoxicity [3].

As for `COc1cc(NC(C)CCCN)c2ncccc2c1` (centres undefined) [PRIMAQUINE], the Hepatotoxicity entry in the series on Hepatotoxicity [1] is on record as “drug-induced liver injury reported”; in the series with Hepatotoxicity [2] it was “no drug-induced liver injury reported”; in the series with Hepatotoxicity [3], “drug-induced liver injury reported”.

On to `CCC1(c2ccccc2)C(=O)NCNC1=O` [PRIMIDONE], for which the Hepatotoxicity result in the series with Hepatotoxicity [1] is listed as “drug-induced liver injury reported”; in the series on Hepatotoxicity [2], “drug-induced liver injury reported”; in the series with Hepatotoxicity [3], “no drug-induced liver injury reported”.

Regarding `CCCN(CCC)S(=O)(=O)c1ccc(C(=O)O)cc1` [PROBENECID], the Hepatotoxicity result in the series on Hepatotoxicity [1] was “drug-induced liver injury reported”; in the series with Hepatotoxicity [2], “no drug-induced liver injury reported”; with Hepatotoxicity [3], “drug-induced liver injury reported”.

As to `CC(C)(Sc1cc(C(C)(C)C)c(O)c(C(C)(C)C)c1)Sc1cc(C(C)(C)C)c(O)c(C(C)(C)C)c1` [PROBUCOL], the Hepatotoxicity entry in the series with Hepatotoxicity [1], with Hepatotoxicity [2] and with Hepatotoxicity [3] was “drug-induced liver injury reported” each time.

On to `CCN(CC)CCNC(=O)c1ccc(N)cc1` [PROCAINAMIDE], for which the values for the Hepatotoxicity entry with Hepatotoxicity [1], in the series with Hepatotoxicity [2] and with Hepatotoxicity [3] were “drug-induced liver injury reported”, “no drug-induced liver injury reported” and “drug-induced liver injury reported”, respectively.

In the case of `CNNCc1ccc(C(=O)NC(C)C)cc1` [PROCARBAZINE], the figures for the Hepatotoxicity entry with Hepatotoxicity [1], with Hepatotoxicity [2] and in the series with Hepatotoxicity [3] were “no drug-induced liver injury reported”, “no drug-induced liver injury reported” and “drug-induced liver injury reported”, respectively.

For the compound `CN1CCN(CCCN2c3ccccc3Sc3ccc(Cl)cc32)CC1` [PROCHLORPERAZINE], the Hepatotoxicity entry in the series with Hepatotoxicity [1] was “drug-induced liver injury reported”; in the series on Hepatotoxicity [2], “no drug-induced liver injury reported”; with Hepatotoxicity [3] it was “no drug-induced liver injury reported”.

Turning to `[H]/N=C(\N/C(=N/[H])Nc1ccc(Cl)cc1)NC(C)C` [PROGUANIL], the figures for the Hepatotoxicity entry in the series on Hepatotoxicity [1], in the series with Hepatotoxicity [2] and in the series with Hepatotoxicity [3] were “drug-induced liver injury reported”, “no drug-induced liver injury reported” and “no drug-induced liver injury reported”, respectively.

In the case of `CC(CN1c2ccccc2Sc2ccccc21)N(C)C` (centres undefined) [PROMETHAZINE], the Hepatotoxicity entry in the series on Hepatotoxicity [1] was “no drug-induced liver injury reported”; in the series on Hepatotoxicity [2], “drug-induced liver injury reported”; with Hepatotoxicity [3] it was “drug-induced liver injury reported”.

Take `CC(C)c1cccc(C(C)C)c1O` [PROPOFOL]: the Hepatotoxicity entry with Hepatotoxicity [1] (Liver), with Hepatotoxicity [2] (Liver) and in the series with Hepatotoxicity [3] (Liver) was “drug-induced liver injury reported” in each case.

Take `CCC(=O)O[C@](Cc1ccccc1)(c1ccccc1)[C@H](C)CN(C)C` [PROPOXYPHENE]: the Hepatotoxicity entry in the series with Hepatotoxicity [1] is reported as “drug-induced liver injury reported”; with Hepatotoxicity [2], “no drug-induced liver injury reported”; in the series on Hepatotoxicity [3] it was “drug-induced liver injury reported”.

For the compound `CC(C)NCC(O)COc1cccc2ccccc12` (centres undefined) [PROPRANOLOL], the Hepatotoxicity result with Hepatotoxicity [1], in the series with Hepatotoxicity [2] and with Hepatotoxicity [3] was “drug-induced liver injury reported” in each case.

Take `CCCc1cc(=O)[nH]c(=S)[nH]1` [PROPYLTHIOURACIL]: the figures for the Hepatotoxicity result in the series with Hepatotoxicity [1] (Liver), with Hepatotoxicity [2] (Liver) and in the series on Hepatotoxicity [3] (Liver) were “drug-induced liver injury reported”, “no drug-induced liver injury reported” and “drug-induced liver injury reported”, respectively.

On to `CCCc1cc(C(N)=S)ccn1` [PROTIONAMIDE], for which the Hepatotoxicity entry is “drug-induced liver injury reported” in the series on Hepatotoxicity [1], “no drug-induced liver injury reported” in the series with Hepatotoxicity [2] and “no drug-induced liver injury reported” in the series on Hepatotoxicity [3].

In the case of `NC(=O)c1cnccn1` [PYRAZINAMIDE], the Hepatotoxicity entry in the series on Hepatotoxicity [1] is given as “drug-induced liver injury reported”; in the series on Hepatotoxicity [2], “no drug-induced liver injury reported”; with Hepatotoxicity [3], “drug-induced liver injury reported”.

Turning to `CNC(=O)OCc1cccc(COC(=O)NC)n1` [PYRICARBATE], the figures for the Hepatotoxicity result in the series on Hepatotoxicity [1], with Hepatotoxicity [2] and in the series on Hepatotoxicity [3] were “drug-induced liver injury reported”, “no drug-induced liver injury reported” and “drug-induced liver injury reported”, respectively.

Consider `Cc1ncc(COP(=O)(O)O)c(C=O)c1O` [PYRIDOXAL PHOSPHATE ANHYDROUS], for which the Hepatotoxicity entry in the series on Hepatotoxicity [1] is “no drug-induced liver injury reported”; in the series on Hepatotoxicity [2], “no drug-induced liver injury reported”; with Hepatotoxicity [3], “drug-induced liver injury reported”.

As to `CCc1nc(N)nc(N)c1-c1ccc(Cl)cc1` [PYRIMETHAMINE], the results for the Hepatotoxicity entry in the series on Hepatotoxicity [1], in the series with Hepatotoxicity [2] and in the series on Hepatotoxicity [3] were “drug-induced liver injury reported”, “no drug-induced liver injury reported” and “drug-induced liver injury reported”, respectively.

With `CCN(CC)CCCC(C)Nc1c2ccc(Cl)cc2nc2ccc(OC)cc12` (centres undefined) [QUINACRINE], the Hepatotoxicity entry with Hepatotoxicity [1], with Hepatotoxicity [2] and in the series with Hepatotoxicity [3] was “drug-induced liver injury reported” throughout.

On to `C#C[C@]1(O)CC[C@H]2[C@@H]3CCc4cc(OC5CCCC5)ccc4[C@H]3CC[C@@]21C` [QUINESTROL], for which the Hepatotoxicity entry with Hepatotoxicity [1] is “no drug-induced liver injury reported”; in the series with Hepatotoxicity [2], “no drug-induced liver injury reported”; in the series with Hepatotoxicity [3], “drug-induced liver injury reported”.

As for `C=C[C@H]1C[N@@]2CC[C@H]1C[C@@H]2[C@@H](O)c1ccnc2ccc(OC)cc12` [QUINIDINE], the Hepatotoxicity entry in the series with Hepatotoxicity [1] is “drug-induced liver injury reported”; in the series on Hepatotoxicity [2], “no drug-induced liver injury reported”; in the series on Hepatotoxicity [3] it was “drug-induced liver injury reported”.

Regarding `CCO[C@@H](Cc1ccc(OCCN2c3ccccc3Oc3ccccc32)cc1)C(=O)O` [RAGAGLITAZAR], the figures for the Hepatotoxicity result in the series on Hepatotoxicity [1], with Hepatotoxicity [2] and in the series on Hepatotoxicity [3] were “no drug-induced liver injury reported”, “no drug-induced liver injury reported” and “drug-induced liver injury reported”, respectively.

Turning to `Cc1nc2ccc(CN(C)c3ccc(C(=O)N[C@@H](CCC(=O)O)C(=O)O)s3)cc2c(=O)[nH]1` [RALTITREXED], the Hepatotoxicity entry is recorded as “drug-induced liver injury reported” in the series on Hepatotoxicity [1], “no drug-induced liver injury reported” with Hepatotoxicity [2] and “no drug-induced liver injury reported” in the series on Hepatotoxicity [3].

With `CNC(=C[N+](=O)[O-])NCCSCc1ccc(CN(C)C)o1` [RANITIDINE], the Hepatotoxicity result in the series with Hepatotoxicity [1], in the series on Hepatotoxicity [2] and with Hepatotoxicity [3] was “drug-induced liver injury reported” throughout.

As to `O=C(NC(Cc1cc(=O)[nH]c2ccccc12)C(=O)O)c1ccc(Cl)cc1` (centres undefined) [REBAMIPIDE], the figures for the Hepatotoxicity result in the series with Hepatotoxicity [1], with Hepatotoxicity [2] and with Hepatotoxicity [3] were “no drug-induced liver injury reported”, “no drug-induced liver injury reported” and “drug-induced liver injury reported”, respectively.

For `Cc1oc(-c2ccccc2)nc1CCOc1ccc(CC2C(=O)NOC2=O)cc1` (centres undefined) [REGLITAZAR], the Hepatotoxicity result in the series with Hepatotoxicity [1] is recorded as “no drug-induced liver injury reported”; in the series on Hepatotoxicity [2], “no drug-induced liver injury reported”; in the series on Hepatotoxicity [3], “drug-induced liver injury reported”.

`COC(=O)[C@H]1[C@H]2C[C@@H]3c4[nH]c5cc(OC)ccc5c4CCN3C[C@H]2C[C@@H](OC(=O)c2cc(OC)c(OC)c(OC)c2)[C@@H]1OC` [RESERPINE]: the Hepatotoxicity result in the series on Hepatotoxicity [1] is “no drug-induced liver injury reported”; in the series with Hepatotoxicity [2], “no drug-induced liver injury reported”; in the series with Hepatotoxicity [3] it was “drug-induced liver injury reported”.

The values are drawn from ChEMBL document CHEMBL1697731, “Cheminformatics analysis of assertions mined from literature that describe drug-induced liver injury in different species” (Chem Res Toxicol, 2010).
